Reference: US11160796B2, “Anti-androgens for the treatment of non-metastatic castration-resistant prostate cancer” (priority 2017, dated 2021)

How the values were obtained:
[1] = molecular target: T1, human cytochrome P450 isoform CYP2C8 (Homo sapiens, UniProt P10632); assay: Cytochrome P450 inhibition: CYP2C8; type: in vitro ADME
T1 sequence (P10632 1-490): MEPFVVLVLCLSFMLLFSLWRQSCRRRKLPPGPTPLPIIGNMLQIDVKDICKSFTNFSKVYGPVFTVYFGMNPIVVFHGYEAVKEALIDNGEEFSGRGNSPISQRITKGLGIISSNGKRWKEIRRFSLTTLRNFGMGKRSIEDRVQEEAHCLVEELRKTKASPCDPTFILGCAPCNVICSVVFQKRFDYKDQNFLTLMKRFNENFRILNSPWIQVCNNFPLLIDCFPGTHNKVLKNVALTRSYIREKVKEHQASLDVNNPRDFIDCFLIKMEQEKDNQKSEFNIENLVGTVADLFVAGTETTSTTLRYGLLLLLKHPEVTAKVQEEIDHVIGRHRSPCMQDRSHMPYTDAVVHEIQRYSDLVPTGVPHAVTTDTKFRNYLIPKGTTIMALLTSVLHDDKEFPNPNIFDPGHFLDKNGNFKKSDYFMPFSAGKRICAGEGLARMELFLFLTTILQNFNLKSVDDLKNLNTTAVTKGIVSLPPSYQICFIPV

[2] = Preclinical pharmacokinetic profile; type: in vivo
[3] = test system: T2, major CYP isoforms other than CYP2C8; assay: Cytochrome P450 inhibition: major isoforms; type: in vitro ADME; conditions: human; the other major isoforms (other than CYP2C8)
T2 construct: IC50; other: the other major isoforms (other than CYP2C8)

CYP1A2 and CYP2D6 = assay: In vitro effect on CYP1A2 and CYP2D6; conditions: therapeutically relevant concentrations
[4] = Incubation with liver S9 fraction and liver microsomes; type: in vitro ADME; conditions: incubated for up to 120 minutes; rat, dog, and human
From the text: The primary in vivo metabolites were formed by N-demethylation and amide hydrolysis in the rat and dog.

[5] = Clinical pharmacokinetics (population PK analysis); conditions: for dose dependence of exposure (Cmax and AUC): repeat once-daily dosing, 30 to 480 mg
LNCaP/AR cells = assay: In vitro model of CRPC (AR-over-expressing prostate cancer cells); type: cell-based
[6] = Bacterial reverse mutation (Ames) assay
[7] = Fertility study in male rats; type: in vivo
[8] = test system: non-metastatic castration-resistant prostate cancer (NM-CRPC); assay: Phase III study (SPARTAN, Study 1): efficacy; type: in vivo, human; conditions: for Metastasis Free Survival (MFS), median: 240 mg once daily + ADT, ITT, BICR
From the text: The study consisted of a Screening Phase of up to 35 days before randomization to establish eligibility and document baseline measurements, a double-blind Treatment Phase (28-day treatment cycles; continuous dosing), and a Long-term Follow-up Phase to monitor PFS, survival status, subsequent prostate cancer therapy, PRO, and MRU. […] The randomization was stratified as follows: • PSADT: <6 months vs. >6 months; • Bone-sparing agent use: Yes vs. No; and • Loco-regional disease: N0 vs. N1 (ie, nodal disease).
All patients who were not surgically castrated received ADT continuously throughout the study. […] Systemic corticosteroids were not allowed at study entry. […] Patients randomized to either arm were to continue treatment until disease progression defined by blinded central imaging review (BICR), initiation of new treatment, unacceptable toxicity or withdrawal.
With the softgel capsules only, subjects could switch to a twice daily dosing regimen (4 tables each period) if gastrointestinal issues arose with the once daily schedule. […] For the purposes of this study, a treatment cycle consisted of 4 weeks (28 days).
The primary efficacy endpoint was metastasis-free survival (MFS), defined as the time from randomization to the time of first evidence of BICR-confirmed bone or soft tissue distant metastasis or death due to any cause, whichever occurred first. Metastasis-free survival data for subjects without metastasis or death were censored on the date of the last tumor assessment (or, if no tumor assessment was performed after the baseline visit, at the date of randomization). Censoring rules based on FDA and CHMP guidance were applied for analyses of MFS (referred to in the text as US censoring or ex-US censoring).
Patients were stratified by Prostate Specific Antigen (PSA) Doubling Time (PSADT), the use of bone-sparing agents, and locoregional disease. Patients were required to have a PSADT≤10 months and confirmation of non-metastatic disease by blinded independent central review (BICR).
The major efficacy outcome measure of the study was metastasis-free survival (MFS), defined as the time from randomization to the time of first evidence of BICR-confirmed distant metastasis, defined as new bone or soft tissue lesions or enlarged lymph nodes above the iliac bifurcation, or death due to any cause, whichever occurred first. Additional efficacy endpoints were time to metastasis (TTM), progression-free survival (PFS) which also includes locoregional progression, time to symptomatic progression, and overall survival (OS).

CNC(=O)c1ccc(N2C(=S)N(c3cnc(C#N)c(C(F)(F)F)c3)C(=O)C23CCC3)cc1F [apalutamide, 4-[7-(6-cyano-5-trifluoromethylpyridin-3-yl)-8-oxo-6-thioxo-5,7-diazaspiro[3.4]oct-5-yl]-2-fluoro-N-methylbenzamide]
IC50 [1]: 13.9 µM | clearance ([2]; preclinical): low clearance | volume of distribution ([2]; preclinical): moderate volume of distribution | bioavailability ([2]; when dosed with a lipid-based formulation): high bioavailability | IC50 [3]: > 25 µM | genotoxicity, in vivo rat Comet assay (In vivo rat Comet assay): not genotoxic | effect on CYP1A2 and CYP2D6 (CYP1A2 and CYP2D6): do not affect | turnover [4]: very low turnover | time to steady state ([5]; 240 mg once daily): 4 weeks | CL/F ([5]; after single dosing): 1.3 L/h | CL/F ([5]; at steady-state after once-daily dosing): 2.0 L/h | changes in Cmax and AUC with food ([5]; high-fat meal vs fasting, healthy subjects): no clinically relevant changes | Tmax ([5]; human, plasma, po): 2 h | bioavailability ([5]; human, plasma, po): ~100% | differences in pharmacokinetics in specific populations ([5]; mild or moderate renal impairment, mild or moderate hepatic impairment, age 18 to 94 years, race): No clinically significant differences | dose dependence of exposure (Cmax and AUC) [5]: dose-proportional | dose dependence of exposure (Cmax and AUC) ([5]; listed as Apalutamide): increased proportionally | agonist properties in an in vitro model of CRPC (LNCaP/AR cells; LNCaP/AR cells): no significant agonist properties | Gene transcription of the androgen-driven genes, PSA and TMPRSS2 (LNCaP/AR cells; in vitro): inhibited | mutations in the bacterial reverse mutation (Ames) assay [6]: did not induce mutations | live fetuses (pre- and/or post-implantation loss) ([7]; 4 weeks of 150 mg/kg/day): reduced number of live fetuses | dose with decreased sperm concentration and motility, copulation and fertility rates, reduced secondary sex gland and epididymis weights ([7]; 4 weeks of dosing, male rats): > 25 mg/kg/day | reversibility of effects on male rats ([7]; after 8 weeks from the last administration): reversible | Metastasis Free Survival (MFS), median [8]: 41 months | Metastasis Free Survival (MFS), median ([8]; listed as Apalutamide): 40.5 months | decrease in the risk of symptomatic progression ([8]; compared with placebo): 55% | Progression-free Survival (PFS), median ([8]; in vivo): 40.5 months | Time to Metastasis (TTM), median ([8]; in vivo): 40.5 months | MFS HR, subgroup PSA doubling time of >6 months ([8]; non-stratified analysis): 0.30 | MFS HR, subgroup PSA doubling time of months ([8]; non-stratified analysis): 0.29 | MFS HR, total study population ([8]; non-stratified analysis): 0.30 | decrease in the risk of distant metastasis or death ([8]; vs placebo): 72%
